Test results taken from ChEMBL document CHEMBL4049444, “Topical Intestinal Aminoimidazole Agonists of G-Protein-Coupled Bile Acid Receptor 1 Promote Glucagon Like Peptide-1 Secretion and Improve Glucose Tolerance” (J Med Chem, 2017).
In brackets after ≈: the same amount, converted by molar mass.

What was measured:
[1] = Half life in C57BL6/J mouse at 20 mg/kg, po by LC-MS/MS analysis; format: ADME, organism-based; conditions: in vivo
[2] = Cmax in C57BL6/J mouse plasma at 20 mg/kg, po by LC-MS/MS analysis; format: ADME, organism-based; design: dose 20 mg/kg, route oral
[3] = AUC in C57BL6/J mouse at 20 mg/kg, po by LC-MS/MS analysis; format: ADME, organism-based; conditions: in vivo
[4] = 1-octanol/phosphate buffer solution partition coefficient, log D of the compound at pH 7.4 for 2 hrs by LC-MS/MS method; format: physicochemical
in vivo = conditions: C57BL6/J, mouse, faeces, po, 20 mg/kg
[5] = Tmax in C57BL6/J mouse at 20 mg/kg, po by LC-MS/MS analysis; format: ADME, organism-based; conditions: in vivo
[6] = Apparent permeability from apical to basolateral side in human Caco2 cells assessed as drug recovery at 10 uM after 1 hr by LC-MS/MS analysis; format: ADME, cell-based; conditions: Caco-2, read-out: Drug recovery
[7] = Apparent permeability from basolateral to apical side in human Caco2 cells assessed as drug recovery at 10 uM after 1 hr by LC-MS/MS analysis; format: ADME, cell-based; conditions: Caco-2, read-out: Drug recovery
[8] = Cmax in C57BL6/J mouse gallbladder at 20 mg/kg, po by LC-MS/MS analysis; format: ADME, organism-based, Gall bladder; design: dose 20 mg/kg, route oral
[9] = Apparent permeability from apical to basolateral side in human Caco2 cells at 10 uM after 1 hr by LC-MS/MS analysis; format: ADME, cell-based; conditions: Caco-2
[10] = Apparent permeability from basolateral to apical side in human Caco2 cells at 10 uM after 1 hr by LC-MS/MS analysis; format: ADME, cell-based; conditions: Caco-2
[11] = Half life in CD-1 mouse liver microsomes at 1 uM in presence of NADPH by LC-MS/MS analysis; format: ADME, microsome
Colon = assay: Drug uptake in C57BL6 mouse colon at 20 mg/kg, po after 8 hrs by LC-MS/MS; format: ADME, organism-based; conditions: in vivo
physchem = conditions: PBS/MeOH
Ileum = assay: Drug uptake in C57BL6 mouse ileum at 20 mg/kg, po after 8 hrs by LC-MS/MS; format: ADME, organism-based; conditions: in vivo
[12] = Cmax in C57BL6/J mouse liver at 20 mg/kg, po by LC-MS/MS analysis; format: ADME, organism-based; design: dose 20 mg/kg, route oral
[13] = Apparent permeability from apical to basolateral side in human Caco2 cells at 5 uM after 1 hr by LC-MS/MS analysis; format: ADME, cell-based; conditions: Caco-2
[14] = Apparent permeability from basolateral to apical side in human Caco2 cells at 5 uM after 1 hr by LC-MS/MS analysis; format: ADME, cell-based; conditions: Caco-2
[15] = Apparent permeability from basolateral to apical side in human Caco2 cells assessed as drug recovery at 5 uM after 1 hr by LC-MS/MS analysis; format: ADME, cell-based; conditions: Caco-2, read-out: Drug recovery
[16] = Apparent permeability from apical to basolateral side in human Caco2 cells assessed as drug recovery at 5 uM after 1 hr by LC-MS/MS analysis; format: ADME, cell-based; conditions: Caco-2, read-out: Drug recovery

SMILES | half-life [1] | Cmax [2] | AUC [3] | logD at 2 h [4] | dose excreted at 24 h (in vivo) | Tmax [5] | recovery at 1 h, 10 µM [6] | recovery at 1 h, 10 µM [7] | Cmax [8] | Papp A→B at 1 h, 10 µM [9] | Papp B→A at 1 h, 10 µM [10] | half-life at 1 µM [11] | Drug uptake (Colon) | solubility at 24 h (physchem) | Drug uptake (Ileum) | Cmax [12] | Papp A→B at 1 h, 5 µM [13] | Papp B→A at 1 h, 5 µM [14] | recovery at 1 h, 5 µM [15] | recovery at 1 h, 5 µM [16]
COc1ccc(N(C)c2cnc(SCc3c(F)cc(C#CC[N+](C)(C)C)cc3F)n2-c2ccc(F)cc2)cc1OC.O=C[O-] | 97 min | 100 nM | 48.5 ng·h/mL | 1 | 88% | 15 min | 69.8% | 93.4% | 9030 nM | – | – | – | – | – | – | – | – | – | – | –
COc1ccc(N(C)c2cnc(SCc3c(F)cc(OCCC[N+]45CCN(CC4)CC5)cc3F)n2-c2ccc(F)cc2)cc1OC.O=C[O-] | – | – | – | 0.9 | – | – | 69.3% | 99.6% | – | 0.016 ×10⁻⁶ cm/s | 0.22 ×10⁻⁶ cm/s | – | – | – | – | – | – | – | – | –

Further lines, results first:

half-life [1] | Cmax [2] | AUC [3] | logD at 2 h [4] | dose excreted at 24 h (in vivo) | Tmax [5] | recovery at 1 h, 10 µM [6] | recovery at 1 h, 10 µM [7] | Cmax [8] | Papp A→B at 1 h, 10 µM [9] | Papp B→A at 1 h, 10 µM [10] | half-life at 1 µM [11] | Drug uptake (Colon) | solubility at 24 h (physchem) | Drug uptake (Ileum) | Cmax [12] | Papp A→B at 1 h, 5 µM [13] | Papp B→A at 1 h, 5 µM [14] | recovery at 1 h, 5 µM [15] | recovery at 1 h, 5 µM [16] | SMILES
317 min | 102 nM | 96.2 ng·h/mL | 0.8 | 100% | 45 min | 80.1% | 102% | 11000 nM | 0.031 ×10⁻⁶ cm/s | 19 ×10⁻⁶ cm/s | 1.2 min | Active | > 200 µM | Active | 385 nM | – | – | – | – | COc1ccc(N(C)c2cnc(SCc3c(F)cc(OCCCS(=O)(=O)O)cc3F)n2-c2ccc(F)cc2)cc1OC.N
– | – | – | – | – | – | – | – | – | 0.08 ×10⁻⁶ cm/s | 0.24 ×10⁻⁶ cm/s | – | – | – | – | – | – | – | – | – | COc1ccc(N(C)c2cnc(SCc3c(F)cc(C#CC[N+](C)(C)C)cc3F)n2-c2ccc(F)cc2)cc1OC.[I-]
– | – | – | 3.5 | – | – | – | – | – | – | – | 0.7 min | – | 6.3 µM (≈ 3.06 µg/mL) | – | – | 5.32 ×10⁻⁶ cm/s | 5.47 ×10⁻⁶ cm/s | 106% | 84.4% | COc1ccc(N(C)c2cnc(SCc3c(F)cccc3F)n2-c2ccc(F)cc2)cc1OC
